The values that follow come from patent US20030113379A1, “Biodegradable composite matrix for enhancing angiogenesis and method for producing the same” (INDUSTRIAL TECHNOLOGY RESEARCH INSTITUTE, priority 2001, published 2003).

“Also recorded” adds a separate entry of the source.

The test system of this experiment is mouse. The experiment can be described thus: Angiogenesis in mice after subcutaneous injection of hydrogel composite matrix (HE-stained tissue sections). In kind it is in vivo. As to conditions: mice sacrificed 15 days after subcutaneous injection of the hydrogel; rank order against PBS control. The procedure:
S-1-P was dissolved in methanol and the solution was poured into a round bottom flask. S-1-P was then dried and spread onto the inner wall of the flask by decompression distillation. PBS was added into the flask followed by rapid freezing using liquid nitrogen. The mixture was then sonicated under room temperature to melt the S-1-P from the inner wall and form micelles. The resulting S-1-P micelles were mixed with chitin hydrogel and bFGF to give a composite matrix. The composite matrix was introduced into the mouse via subcutaneous injection.
The mice were sacrificed 15 days after injecting the hydrogel. The implanted tissues were obtained, fixed, embedded, sectioned, stained, and observed under a 200 times microscope. The sizes and conditions of the blood vessels of the sections were observed. […] The arrows indicate the blood vessels. FIG. 2 is the average numbers of blood vessels of the tissue sections. It is shown that blood vessel number of the sections is bFGF/S-1-P>bFGF>PBS, which is in consistent with results shown in FIG. 1.

For “bFGF: protein growth factor (fibroblast growth factor) used alone as the comparison sample”, the “average numbers of blood vessels of the tissue sections (FIG. 2)” value is “larger than the PBS sample; also recorded: bFGF>PBS”.
